Assay results: US7750003B2, “Compounds-943” (AstraZeneca AB, priority 2006, dated 2010)

Molecular target: recombinant mTOR (FLAG-tagged, residues 1362-2549) (Homo sapiens, UniProt P42345)
Assay: In vitro mTOR kinase assay (Test (a), AlphaScreen)
Assay type: biochemical
Conditions: ATP 20 μM, read-out: Test (a): IC50 versus mTOR kinase
How it was run: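 AlphaScreen read-out: a phospho-T389 p70 S6K antibody on acceptor beads captures the phosphorylated biotin-peptide on donor beads, with signal loss indicating inhibition.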

recombinant mTOR (FLAG-tagged, residues 1362-2549), sequence (P42345 1362-2549): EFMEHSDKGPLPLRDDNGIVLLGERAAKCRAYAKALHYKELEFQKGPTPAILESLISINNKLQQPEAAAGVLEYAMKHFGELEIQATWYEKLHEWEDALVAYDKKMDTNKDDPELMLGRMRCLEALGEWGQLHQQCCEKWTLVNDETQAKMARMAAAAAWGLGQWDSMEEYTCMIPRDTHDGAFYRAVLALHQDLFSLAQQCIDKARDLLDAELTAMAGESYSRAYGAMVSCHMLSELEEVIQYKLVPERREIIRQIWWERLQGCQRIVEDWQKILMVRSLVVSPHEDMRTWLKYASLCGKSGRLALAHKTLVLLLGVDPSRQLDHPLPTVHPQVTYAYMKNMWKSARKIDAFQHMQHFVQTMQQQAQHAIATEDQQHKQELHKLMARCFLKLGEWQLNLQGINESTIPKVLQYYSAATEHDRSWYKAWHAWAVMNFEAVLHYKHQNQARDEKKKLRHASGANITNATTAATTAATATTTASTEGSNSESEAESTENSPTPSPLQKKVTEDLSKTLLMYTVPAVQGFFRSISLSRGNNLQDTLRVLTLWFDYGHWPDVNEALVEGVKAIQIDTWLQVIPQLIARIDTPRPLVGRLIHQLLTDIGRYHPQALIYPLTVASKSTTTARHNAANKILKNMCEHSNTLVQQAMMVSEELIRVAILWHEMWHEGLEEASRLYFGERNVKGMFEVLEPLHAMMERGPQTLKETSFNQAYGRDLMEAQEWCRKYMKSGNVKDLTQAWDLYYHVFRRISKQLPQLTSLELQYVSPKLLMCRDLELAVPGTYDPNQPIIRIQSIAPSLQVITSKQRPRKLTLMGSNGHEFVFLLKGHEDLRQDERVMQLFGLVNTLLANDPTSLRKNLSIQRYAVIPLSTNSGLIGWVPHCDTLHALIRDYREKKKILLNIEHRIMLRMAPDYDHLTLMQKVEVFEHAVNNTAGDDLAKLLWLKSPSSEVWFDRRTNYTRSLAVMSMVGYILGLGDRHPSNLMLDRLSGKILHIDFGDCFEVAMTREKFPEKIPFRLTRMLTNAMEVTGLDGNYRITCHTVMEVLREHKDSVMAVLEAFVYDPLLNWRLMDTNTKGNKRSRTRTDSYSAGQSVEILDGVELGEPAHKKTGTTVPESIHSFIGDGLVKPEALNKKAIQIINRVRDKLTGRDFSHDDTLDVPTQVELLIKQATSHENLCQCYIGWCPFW

| Compound | IC50 |
| --- | --- |
| COCCCNC(=O)Nc1ccc(-c2nc(CS(C)(=O)=O)cc(N3CCOC[C@@H]3C)n2)cc1 [Example 35b, 3-(3-methoxypropyl)-1-[4-[4-[(3S)-3-methylmorpholin-4-yl]-6-(methylsulfonylmethyl)pyrimidin-2-yl]phenyl]urea] | 420 nM |
| CS(=O)(=O)Cc1cc(N2CCOCC2)nc(-c2ccc(NC(=O)NCc3ccco3)cc2)n1 [Example 7p, 3-(2-furylmethyl)-1-[4-[4-(methylsulfonylmethyl)-6-morpholin-4-yl-pyrimidin-2-yl]phenyl]urea] | 3800 nM |
| CC(=O)NCCNC(=O)Nc1ccc(-c2nc(CS(C)(=O)=O)cc(N3CCOCC3)n2)cc1 [Example 8b, N-[2-[[4-[4-(methylsulfonylmethyl)-6-morpholin-4-yl-pyrimidin-2-yl]phenyl]carbamoylamino]ethyl]acetamide] | 420 nM |
| C[C@H]1COCCN1c1cc(CS(C)(=O)=O)nc(-c2ccc(NC(=O)N3CCC3)c(F)c2)n1 [Example 4a, N-[2-Fluoro-4-[4-[(3S)-3-methylmorpholin-4-yl]-6-(methylsulfonylmethyl)pyrimidin-2-yl]phenyl]azetidine-1-carboxamide] | 1000 nM |
| CN1CCN(CCNC(=O)Nc2ccc(-c3nc(CS(C)(=O)=O)cc(N4CCOCC4)n3)cc2)CC1 [Example 45w, 1-[2-(4-methylpiperazin-1-yl)ethyl]-3-[4-[4-(methylsulfonylmethyl)-6-morpholin-4-yl-pyrimidin-2-yl]phenyl]urea] | 740 nM |
| CS(=O)(=O)Cc1cc(N2CCOCC2)nc(-c2ccc(NC(=O)NCCCO)cc2)n1 [Example 45q, 3-(3-hydroxypropyl)-1-[4-[4-(methylsulfonylmethyl)-6-morpholin-4-yl-pyrimidin-2-yl]phenyl]urea] | 32 nM |
| CC(C)S(=O)(=O)Cc1cc(N2CCOCC2)nc(-c2ccc(NC(=O)NCCN(C)C)cc2)n1 [Example 20n, 3-(2-dimethylaminoethyl)-1-[4-[4-morpholin-4-yl-6-(propan-2-ylsulfonylmethyl)pyrimidin-2-yl]phenyl]urea] | 860 nM |
| C[C@H]1COCCN1c1cc(CS(=O)(=O)CC(N)=O)nc(-c2ccc(NC(=O)NC3CC3)cc2)n1 [Example 43h, 2-[[2-[4-(cyclopropylcarbamoylamino)phenyl]-6-[(3S)-3-methylmorpholin-4-yl]pyrimidin-4-yl]methylsulfonyl]acetamide] | 7.1 nM |
| CNC(=O)Nc1ccc(-c2nc(CS(C)(=O)=O)cc(N3CCOC[C@@H]3C)n2)cc1 [Example 2d, 1-methyl-3-[4-[4-[(3S)-3-methylmorpholin-4-yl]-6-(methylsulfonylmethyl)pyrimidin-2-yl]phenyl]urea] | 6.8 nM |
| COCCNC(=O)Nc1ccc(-c2nc(CS(=O)(=O)c3ccccc3)cc(N3CCOC[C@@H]3C)n2)cc1 [Example 20j, 1-[4-[4-(benzenesulfonylmethyl)-6-[(3S)-3-methylmorpholin-4-yl]pyrimidin-2-yl]phenyl]-3-(2-methoxyethyl)urea] | 750 nM |
| Cc1cc(C)cc(NC(=O)Nc2ccc(-c3nc(CS(C)(=O)=O)cc(N4CCOCC4)n3)cc2)c1 [Example 7d, 1-(3,5-dimethylphenyl)-3-[4-[4-(methylsulfonylmethyl)-6-morpholin-4-yl-pyrimidin-2-yl]phenyl]urea] | 2600 nM |
| COc1cc(-c2nc(CS(C)(=O)=O)cc(N3CCOC[C@@H]3C)n2)ccc1NC(=O)Nc1ccc(F)cc1 [Example 1h, 3-(4-fluorophenyl)-1-[2-methoxy-4-[4-[(3S)-3-methylmorpholin-4-yl]-6-(methylsulfonylmethyl)pyrimidin-2-yl]phenyl]urea] | 1200 nM |
| C[C@H]1COCCN1c1cc(C(C)(C)O)nc(-c2ccc(NC(=O)NCc3cnn(C)c3)cc2)n1 [Example 38, 1-[4-[4-(2-Hydroxypropan-2-yl)-6-[(3S)-3-methylmorpholin-4-yl]pyrimidin-2-yl]phenyl]-3-[(1-methylpyrazol-4-yl)methyl]urea] | 1300 nM |
| CNC(=O)Nc1ccc(-c2nc(CS(=O)(=O)c3ccccc3Cl)cc(N3CCOC[C@@H]3C)n2)cc1 [Example 33a, 1-[4-[4-[(2-chlorophenyl)sulfonylmethyl]-6-[(3S)-3-methylmorpholin-4-yl]pyrimidin-2-yl]phenyl]-3-methyl-urea] | 60 nM |

Now from value to molecule:

| IC50 | Compound |
| --- | --- |
| 62 nM | C[C@H]1COCCN1c1cc(CS(=O)(=O)C2CC2)nc(-c2ccc(NC(=O)NC3CC3)cc2)n1 [Example 55, 3-Cyclopropyl-1-[4-[4-(cyclopropylsulfonylmethyl)-6-[(3S)-3-methylmorpholin-4-yl]pyrimidin-2-yl]phenyl]urea] |
| 710 nM | C[C@H]1COCCN1c1cc(CS(C)(=O)=O)nc(-c2cnc(NC(=O)N(C)C3CC3)s2)n1 [Example 46e, 1-cyclopropyl-1-methyl-3-[5-[4-[(3S)-3-methylmorpholin-4-yl]-6-(methylsulfonylmethyl)pyrimidin-2-yl]-1,3-thiazol-2-yl]urea] |
| 450 nM | C[C@H]1COCCN1c1cc(CS(C)(=O)=O)nc(-c2cnc(NC(=O)Nc3ccccc3)s2)n1 [Example 46c, 1-[5-[4-[(3S)-3-methylmorpholin-4-yl]-6-(methylsulfonylmethyl)pyrimidin-2-yl]-1,3-thiazol-2-yl]-3-phenyl-urea] |
| 1100 nM | C[C@H]1COCCN1c1cc(CS(=O)(=O)CC(N)=O)nc(-c2ccc(NC(=O)N(C)C)cc2)n1 [Example 17, 2-[[2-[4-(Dimethylcarbamoylamino)phenyl]-6-[(3S)-3-methylmorpholin-4-yl]pyrimidin-4-yl]methylsulfonyl]acetamide] |
| 2100 nM | COCCNC(=O)Nc1ccc(-c2nc(CS(=O)(=O)c3ccccc3)cc(N3CCOCC3)n2)cc1 [Example 20e, 3-[4-[4-(benzenesulfonylmethyl)-6-morpholin-4-yl-pyrimidin-2-yl]phenyl]-1-(2-methoxyethyl)urea] |
| 120 nM | C[C@H]1COCCN1c1cc(C(C)(C)S(C)(=O)=O)nc(-c2ccc(NC(=O)Nc3ncccn3)cc2)n1 [Example 24u, 1-[4-[4-[(3S)-3-methylmorpholin-4-yl]-6-(2-methylsulfonylpropan-2-yl)pyrimidin-2-yl]phenyl]-3-pyrimidin-2-yl-urea] |
| 510 nM | C[C@H]1COCCN1c1cc(C(C)(C)S(C)(=O)=O)nc(-c2cc(F)c(NC(=O)NC3CC3)c(F)c2)n1 [Example 24ad, 3-cyclopropyl-1-[2,6-difluoro-4-[4-[(3S)-3-methylmorpholin-4-yl]-6-(2-methylsulfonylpropan-2-yl)pyrimidin-2-yl]phenyl]urea] |
| 3700 nM | CCNC(=O)NC1CCN(c2nc(CS(C)(=O)=O)cc(N3CCOC[C@@H]3C)n2)CC1 [Example 23a, 1-ethyl-3-[1-[4-[(3S)-3-methylmorpholin-4-yl]-6-(methylsulfonylmethyl)pyrimidin-2-yl]-4-piperidyl]urea] |
| 4400 nM | Cc1cc(CNC(=O)Nc2ccc(-c3nc(CS(C)(=O)=O)cc(N4CCOC[C@@H]4C)n3)cc2)no1 [Example 24h, 3-[4-[4-[(3S)-3-methylmorpholin-4-yl]-6-(methylsulfonylmethyl)pyrimidin-2-yl]phenyl]-1-[(5-methyl-1,2-oxazol-3-yl)methyl]urea] |
| 13 nM | CC(=O)Nc1ccc(S(=O)(=O)Cc2cc(N3CCOC[C@@H]3C)nc(-c3ccc(NC(=O)NC4CC4)cc3)n2)cc1 [Example 43c, N-[4-[[2-[4-(cyclopropylcarbamoylamino)phenyl]-6-[(3S)-3-methylmorpholin-4-yl]pyrimidin-4-yl]methylsulfonyl]phenyl]acetamide] |
| 2900 nM | C[C@H]1COCCN1c1cc(CS(C)(=O)=O)nc(-c2ccc(N(C)C(=O)Nc3ccccc3)cc2)n1 [Example 3d, 1-Methyl-1-[4-[4-[(3S)-3-methylmorpholin-4-yl]-6-(methylsulfonylmethyl)pyrimidin-2-yl]phenyl]-3-phenyl-urea] |
| 76 nM | C[C@H]1COCCN1c1cc(C(C)(C)S(C)(=O)=O)nc(-c2ccc(NC(=O)NCCN(C)C)cc2)n1 [Example 21i, 3-(2-dimethylaminoethyl)-1-[4-[4-[(3S)-3-methylmorpholin-4-yl]-6-(2-methylsulfonylpropan-2-yl)pyrimidin-2-yl]phenyl]urea] |
| 21 nM | CNC(=O)Nc1ccc(-c2nc(CS(=O)(=O)c3nccs3)cc(N3CCOC[C@@H]3C)n2)cc1 [Example 33g, 3-methyl-1-[4-[4-[(3S)-3-methylmorpholin-4-yl]-6-(1,3-thiazol-2-ylsulfonylmethyl)pyrimidin-2-yl]phenyl]urea] |
| 180 nM | C[C@H]1COCCN1c1cc(C(=O)N2CCN(C)CC2)nc(-c2ccc(NC(=O)NC3CC3)cc2)n1 [Example 36b, 3-cyclopropyl-1-[4-[4-[(3S)-3-methylmorpholin-4-yl]-6-(4-methylpiperazine-1-carbonyl)pyrimidin-2-yl]phenyl]urea] |
| 840 nM | CNC(=O)Nc1ccc(-c2nc(CS(=O)(=O)c3nccn3C)cc(N3CCOC[C@@H]3C)n2)cc1 [Example 33, 3-Methyl-1-[4-[4-[(1-methylimidazol-2-yl)sulfonylmethyl]-6-[(3S)-3-methylmorpholin-4-yl]pyrimidin-2-yl]phenyl]urea] |
| 64 nM | CC(CO)NC(=O)Nc1ccc(-c2nc(CS(C)(=O)=O)cc(N3CCOC[C@@H]3C)n2)cc1 (stereo partly drawn) [Example 35, 3-(1-Hydroxypropan-2-yl)-1-[4-[4-[(3S)-3-methylmorpholin-4-yl]-6-(methylsulfonylmethyl)pyrimidin-2-yl]phenyl]urea] |
| 91 nM | C[C@H]1COCCN1c1cc(CS(C)(=O)=O)nc(-c2ccc(NC(=O)Nc3cnn(C)c3)cc2)n1 [Example 22f, 1-[4-[4-[(3S)-3-methylmorpholin-4-yl]-6-(methylsulfonylmethyl)pyrimidin-2-yl]phenyl]-3-(1-methylpyrazol-4-yl)urea] |
| 63 nM | C[C@H]1COCCN1c1cc(CS(C)(=O)=O)nc(-c2cnc(NC(=O)Nc3cnn(C)c3)s2)n1 [Example 46h, 1-[5-[4-[(3S)-3-methylmorpholin-4-yl]-6-(methylsulfonylmethyl)pyrimidin-2-yl]-1,3-thiazol-2-yl]-3-(1-methylpyrazol-4-yl)urea] |
